PubChem BioAssay (NCI)
Several values for one entry are separate records, joined by “and”; a condition that tells them apart may be missing. Equal entries are not always repeated.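 Growth conditions: 96-well plates. Treatment: test compound, 48 hours, 5 concentrations. Analysis: linear interpolation between bracketing concentrations; unreached endpoints set to highest concentration. GI50 = concentration required for 50% inhibition of growth. TGI is the concentration that stops growth completely.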

Experiments:
Test in all cases: NCI tumour cell line growth inhibition, 48 h
[1] = test system: MDA-MB-435
[2] = test system: ACHN renal
[3] = test system: HCT-116 colon
[4] = test system: DU-145 prostate
[5] = test system: NCI-H23 lung
[6] = test system: MCF7 breast
[7] = test system: T-47D breast
[8] = test system: NCI-H460 lung
[9] = test system: NCI-H226 lung
[10] = test system: A549 NSCLC
[11] = test system: SK-MEL-2 melanoma
[12] = test system: NCI-H522 lung
[13] = test system: MDA-N

Structure (SMILES) | TGI [1] | TGI [2] | TGI [3] | TGI [4] | TGI [5] | TGI [6] | TGI [7] | TGI [8] | TGI [9] | TGI [10] | TGI [11] | TGI [12] | TGI [13] | GI50 [1] | GI50 [2] | GI50 [6] | GI50 [8] | GI50 [11] | GI50 [12]
CC1(Cc2cc3c(cc2C2(c4ccc([N+](=O)[O-])cc4)OCCO2)OCO3)OCCO1 | > 100 µM | > 100 µM | > 100 µM | > 100 µM | > 100 µM | > 100 µM | > 100 µM | > 100 µM | > 100 µM | > 100 µM | > 100 µM | 82.3 µM | > 100 µM | – | – | – | – | – | –
O=C1OC(C2Cc3ccc4c(c3C2=O)CCCC4)c2ccccc21 (stereo unspecified) | > 100 µM | > 100 µM | > 100 µM | > 100 µM | > 100 µM | > 100 µM | > 100 µM | > 100 µM | 59.2 µM | > 100 µM | > 100 µM | > 100 µM | > 100 µM | – | – | – | – | – | –
CC(CC(C)[C@H]1CCC2[C@H]3C(CC(=O)[C@@]21C)[C@@]1(C)CCC(O)C[C@H]1C[C@@H]3O)C(=O)O (stereo partly specified) | > 100 µM | > 100 µM | > 100 µM | > 100 µM | > 100 µM | > 100 µM | > 100 µM | > 100 µM | > 100 µM | > 100 µM | > 100 µM | > 100 µM | > 100 µM | – | – | – | – | – | –
N#CCN1CCN(CC#N)CCN(CC#N)CCN(CC#N)CC1 | > 100 µM | > 100 µM | > 100 µM | > 100 µM | > 100 µM | > 100 µM | > 100 µM | > 100 µM | > 100 µM | > 100 µM | > 100 µM | > 100 µM | > 100 µM | – | – | – | – | – | –
CCC1(CC)C(=O)NN(C(=O)c2ccc(Cl)cc2)C1=O | > 100 µM | > 100 µM | > 100 µM | > 100 µM | > 100 µM | > 100 µM | > 100 µM | > 100 µM | > 100 µM | > 100 µM | > 100 µM | > 100 µM | > 100 µM | – | – | – | – | – | –
Cc1ccc(C2=Nn3c(nc4sc5c(c4c3=O)CCCC5)SC2)cc1 | > 100 µM | > 100 µM | > 100 µM | > 100 µM | > 100 µM | > 100 µM | > 100 µM | > 100 µM | > 100 µM | > 100 µM | – | > 100 µM | > 100 µM | – | – | – | – | – | –
CC(C)(C)OC(=O)NCC(=O)N(CCc1ccc(Cl)c(Cl)c1)CCN1CCCC1 | 28.4 µM | 40.8 µM | 27.9 µM | 32.3 µM | 37.1 µM | 31.8 µM | 53.5 µM | 30.2 µM | 32.3 µM | 37.7 µM | 31.3 µM | 29.4 µM | 29.1 µM | – | – | – | – | – | –
CCOC(=O)CNC(=O)CNC(=O)CNC(=O)CNNc1c(OCc2ccccc2)c(=O)c1=O | > 100 µM | > 100 µM | > 100 µM | > 100 µM | > 100 µM | > 100 µM | > 100 µM | – | > 100 µM | > 100 µM | > 100 µM | > 100 µM | > 100 µM | – | – | – | – | – | –
CN(C(=O)c1cc2c(s1)sc1c(=O)n(C)c3ccccc3c12)c1ccccc1 | > 100 µM | 66.6 µM | > 100 µM | > 100 µM | 69.5 µM | > 100 µM | > 100 µM | 83.3 µM | > 100 µM | > 100 µM | > 100 µM | > 100 µM | > 100 µM | – | – | – | – | – | –
[O-]/[N+](=N/c1ncc(-c2ccccc2)cn1)c1ncc(-c2ccccc2)cn1 | > 100 µM | > 100 µM | > 100 µM | > 100 µM | > 100 µM | > 100 µM | > 100 µM | > 100 µM | > 100 µM | > 100 µM | > 100 µM | 32.3 µM | > 100 µM | – | – | – | – | – | –
CCNC1=C(NC(=O)c2ccc(OC)cc2)C(=O)c2ccccc2C1=O | 31.1 µM | > 100 µM | > 100 µM | > 100 µM | > 100 µM | > 100 µM | > 100 µM | > 100 µM | > 100 µM | > 100 µM | – | > 100 µM | > 100 µM | – | – | – | – | – | –
C=CCN1C(=O)/C(=C/c2ccc(OC)cc2)N=C1SC1OC(COC(C)=O)C(OC(C)=O)C(OC(C)=O)C1OC(C)=O (stereo unspecified) | 46.5 µM and > 100 µM | 32.3 µM and > 100 µM | > 100 µM | 39.2 µM and > 100 µM | > 100 µM | > 100 µM | 67.5 µM | > 100 µM | 55.5 µM and > 100 µM | > 100 µM | 54.8 µM and > 100 µM | > 100 µM | > 100 µM | 18.6 µM and > 100 µM | 15.4 µM and 77.3 µM | 11.7 µM and > 100 µM | 24.7 µM and 99.9 µM | 21.1 µM and 51.7 µM | 5.2 µM and 16.4 µM
COc1ccc(C(c2cc(OC)c(OC)c(OC)c2)N2C(=O)CCC2C(=O)O)cc1 (stereo unspecified) | 48.6 µM | > 100 µM | > 100 µM | > 100 µM | > 100 µM | > 100 µM | > 100 µM | > 100 µM | > 100 µM | > 100 µM | > 100 µM | > 100 µM | 56.9 µM | – | – | – | – | – | –
O=C(/C=C/c1ccccc1Br)c1ccccc1 | 6.57 µM | 3.73 µM | 3.85 µM | 20.1 µM | 12.6 µM | 2.27 µM | 15.5 µM | 16.3 µM | 36.6 µM | 25.3 µM | 31.3 µM | 9.73 µM | 18.4 µM | – | – | – | – | – | –
CC1=NN(C(=O)CC(=O)Nc2ccc(Cl)cc2)C(=O)C1N=Nc1ccc(S(=O)(=O)c2ccc(N=NC3C(=O)N(C(=O)CC(=O)Nc4ccc(Cl)cc4)N=C3C)cc2)cc1 (stereo unspecified) | > 100 µM | > 100 µM | > 100 µM | > 100 µM | > 100 µM | > 100 µM | > 100 µM | > 100 µM | > 100 µM | > 100 µM | > 100 µM | > 100 µM | > 100 µM | – | – | – | – | – | –
CC(=O)c1sc2n(C)c(=O)c3ccccc3[n+]2c1C | > 100 µM | > 100 µM | > 100 µM | > 100 µM | > 100 µM | > 100 µM | > 100 µM | > 100 µM | > 100 µM | > 100 µM | > 100 µM | > 100 µM | > 100 µM | – | – | – | – | – | –
